Laboratory results published in patent US20240108602A1, “TREATMENT OF MENTAL DISORDERS” (GH Research Ireland Limited, priority 2022, published 2024).
Read-outs that look alike come from different tables or passages of the source.

Experiments:
human hepatocytes [1] = test: Metabolite identification after incubation of 5-MeO-DMT with human hepatocytes; details: 5-MeO-DMT free base 10 μM, up to 120 minutes
Description: For incubations with cryopreserved hepatocytes, the 2 mM stock solution was diluted with Leibovitz L-15 medium to a concentration of 20 μM or 2 μM. An aliquot (250 μL) of the 20 μM and 2 μM test substance formulations was added to each hepatocyte incubation sample (250 μL), as appropriate, so that the final test substance concentration in the incubations was 10 μM or 1 μM, respectively, and incubations contained less than 1% (v/v) solvent.
Incubations were performed at ca. 37° C. in a shaking water bath (total incubation volume 0.5 mL). For 1 μM, incubations were terminated after 0, 5, 10, 20, 30, 60 and 120 minutes, by the addition of ice-cold acetonitrile (0.5 mL).
The samples were vortex mixed and centrifuged at ca 13,000 rpm for 10 minutes at room temperature. Following centrifugation, the protein-free supernatants were removed for analysis.
Blank control incubations were carried out with Leibovitz L-15 medium in place of the test substance. No cells control samples were performed with Leibovitz L-15 medium in place of hepatocytes. Aliquots of the blank control samples were taken at 120 minutes, while no cells control samples were taken at 0, 30 and 120 for 1 μM incubations and at 0 and 120 minutes for 10 μM incubations.
All 1 μM incubations were performed in duplicate, while all 10 μM incubations were performed in singlet. All samples were stored at −80° C. (nominal) prior to analysis.
Prior to sample analysis a 100 μL aliquot of each sample was evaporated to near dryness under a steady stream of nitrogen at room temperature, and subsequently reconstituted in 50 μL of mobile phase A (0.1% formic acid in water). Each sample (0, 30 and 120-minute, 10 μM) was analysed using accurate mass LC-MS to determine relative levels of parent compound at each time-point, and determine the profile of metabolites formed. Appropriate blank and control samples were also analysed. The 10 and 60-minute, 10 μM incubation samples were not analysed and were stored at −80° C. (nominal).
Data were interrogated for the presence of metabolites by comparison of retention times with the test substance reference standard and based on the accurate masses of potential metabolites using screening software (UNIFI version 1.9.4), and user defined search parameters. To confirm a suspected metabolite, the measured accurate mass of the peak detected in the sample used for structural elucidation had to be within 5 ppm of the theoretical mass in order to confirm the molecular formula.

[2] = Plasma binding of 5-MIAA (unbound fraction); format: in vitro ADME
Description: Binding to human plasma protein was determined. Reported are the unbound fraction (fu) for three replicates as well as the mean unbound fraction, the standard deviation and the mean % recovery (Table 8).

[3] = 5-MeO-DMT, 5-MIAA and bufotenine in urine, serum and breastmilk of a lactating PPD patient, LC-MS/MS
Description: The second patients was lactating, and, per the clinical trial protocol, breastmilk samples were collected pre-dosing and at multiple timepoints after administration of the last dose. […] Similar analyses were carried out on patient serum and urine samples.

[4] = Metabolic stability in Hμrel human hepatocyte co-culture model; details: human, Hμrel HumanPool primary human hepatocyte co-culture
human hepatocytes [5] = test: as above
[6] = Daily Infant Dosage (DID) and Relative Infant Dose (RID) calculated from breast milk concentrations; details: 5 kg infant, three 250 ml feeds
Description: When determining the potential impact of maternal drug administration on a breastfed infant, it is standard practice to calculate the Relative Infant Dose (RID) (Bennett, P. N., and L. J. Notarianni. “Risk from drugs in breast milk: an analysis by relative dose.” Br J Clin Pharmacol 42.5 (1996): P673-4). The RID is the dosage (in μg/kg/day) the infant is exposed to by the intake of breast milk, divided by the dosage (in μg/kg/day) the mother receives.
Using estimates for daily intake of breast milk and the number of feeds as well as the measured breast milk concentrations the exposure of the infant can be determined.
For example, a published estimate for daily intake of breast milk as a function of infant weight is 150 ml/kg/day. To model the exposure, it is assumed that an infant of 5 kg is fed three times over 24 hours, receiving 250 ml breast milk each time.
Since the amount actually delivered to the patient may be lower than the indicated dose, a calculation of the RID is also carried out assuming that the actually delivered amount is only 50% of the indicated dose so that any a potential underestimation of the infant exposure is avoided.

[7] = female, human, breast milk, inhaled

COc1ccc2[nH]cc(CC(=O)O)c2c1 [5-MIAA, 5-methoxyindole-3-acetic acid]
Relative Proportion of compound after incubation of 5-MeO-DMT (human hepatocytes [1]): about 60%
Relative Proportion of compound after incubation of 5-MeO-DMT (human hepatocytes [1]; listed as 5-Methoxyindole acetic acid (5-MIAA)): 61%
recovery ([2]; human): 81.4%
fraction unbound ([2]; human plasma, read-out: plasma binding (mean fraction unbound)): ~0.5
fraction unbound ([2]; human, read-out: Mean fu): 0.502
fraction unbound ([2]; human, read-out: unbound fraction (fu), Replicate 1): 0.499
fraction unbound ([2]; human, read-out: unbound fraction (fu), Replicate 2): 0.462
fraction unbound ([2]; human, read-out: unbound fraction (fu), Replicate 3): 0.544
urine concentration relative to serum (times higher) ([3]; 2.5 hours): approx. 127 times
Breastmilk concentration ([3]; 120.0 hrs after last dose): BLQ (BLQ: Below limit of quantification. The lower limit of quantification is 25 pg/ml for both 5-MeO-DMT and 5-MIAA in both serum and breastmilk; it is 25 pg/ml in urine for 5-MeO-DMT and 250 pg/ml for 5-MIAA in urine.)
concentration at 2.5 h [3, 7]: 13.2 ng/mL
concentration at 8.5 h [3, 7]: 0.359 ng/mL
concentration at 2.5 h ([3]; female, human, urine, inhaled): 13000 ng/mL
Breastmilk concentration ([3]; −24.0 hrs (pre-dosing)): BLQ (BLQ: Below limit of quantification. The lower limit of quantification is 25 pg/ml for both 5-MeO-DMT and 5-MIAA in both serum and breastmilk; it is 25 pg/ml in urine for 5-MeO-DMT and 250 pg/ml for 5-MIAA in urine.)
half-life at 1 μM [4]: 10.7 days
hepatocyte CLint at 1 μM [4]: 0.15 µL/min/1e6 cells
relative LC/MS peak area (human hepatocytes [5]; 1 μM Hepatocytes, 0 h): 100%
relative LC/MS peak area (human hepatocytes [5]; 1 μM Hepatocytes, 1 h): 98%
relative LC/MS peak area (human hepatocytes [5]; 1 μM Hepatocytes, 2 h): 100%
relative LC/MS peak area (human hepatocytes [5]; 1 μM Hepatocytes, 4 h): 99%
relative LC/MS peak area (human hepatocytes [5]; 1 μM Hepatocytes, 8 h): 95%
relative LC/MS peak area (human hepatocytes [5]; 1 μM Hepatocytes, 24 h): 99%
relative LC/MS peak area (human hepatocytes [5]; 1 μM Hepatocytes, 48 h): 88%
relative LC/MS peak area (human hepatocytes [5]; 1 μM Hepatocytes, 72 h): 82%
relative LC/MS peak area (human hepatocytes [5]; 1 μM Stromal cells, 0 h): 100%
relative LC/MS peak area (human hepatocytes [5]; 1 μM Stromal cells, 4 h): 103%
relative LC/MS peak area (human hepatocytes [5]; 1 μM Stromal cells, 8 h): 107%
relative LC/MS peak area (human hepatocytes [5]; 1 μM Stromal cells, 24 h): 108%
relative LC/MS peak area (human hepatocytes [5]; 1 μM Stromal cells, 48 h): 111%
relative LC/MS peak area (human hepatocytes [5]; 1 μM Stromal cells, 72 h): 135%
relative LC/MS peak area (human hepatocytes [5]; 10 μM Hepatocytes, 0 h): 100%
relative LC/MS peak area (human hepatocytes [5]; 10 μM Hepatocytes, 1 h): 97%
relative LC/MS peak area (human hepatocytes [5]; 10 μM Hepatocytes, 2 h): 100%
relative LC/MS peak area (human hepatocytes [5]; 10 μM Hepatocytes, 4 h): 103%
relative LC/MS peak area (human hepatocytes [5]; 10 μM Hepatocytes, 8 h): 96%
relative LC/MS peak area (human hepatocytes [5]; 10 μM Hepatocytes, 24 h): 96%
relative LC/MS peak area (human hepatocytes [5]; 10 μM Hepatocytes, 48 h): 86%
relative LC/MS peak area (human hepatocytes [5]; 10 μM Hepatocytes, 72 h): 75%
relative LC/MS peak area (human hepatocytes [5]; 10 μM Stromal cells, 0 h): 100%
relative LC/MS peak area (human hepatocytes [5]; 10 μM Stromal cells, 4 h): 101%
relative LC/MS peak area (human hepatocytes [5]; 10 μM Stromal cells, 8 h): 106%
relative LC/MS peak area (human hepatocytes [5]; 10 μM Stromal cells, 24 h): 97%
relative LC/MS peak area (human hepatocytes [5]; 10 μM Stromal cells, 48 h): 103%
relative LC/MS peak area (human hepatocytes [5]; 10 μM Stromal cells, 72 h): 115%
metabolic turnover (human hepatocytes [5]; human hepatocytes): low metabolic turnover
predicted hepatic extraction ratio (human hepatocytes [5]; human, Hμrel HumanPool primary human hepatocyte co-culture): 2%
remaining abundance after 72 h (human hepatocytes [5]; in the presence of hepatocytes, 1 and 10 μM): 75-82%
disappearance with stromal cell controls (human hepatocytes [5]; stromal cell controls): no disappearance
Daily Infant Dosage (DID) of 5-MIAA [6]: 0.006886 mg/day
Daily Infant Dosage (DID) of 5-MIAA per kg [6]: 0.001377 mg/kg/day
